# Test results from ChEMBL document CHEMBL5154644, “Design, Synthesis, and Structure-Activity Relationship Optimization of Pyrazolopyrimidine Amide Inhibitors of Phosphoinositide 3-Kinase γ (PI3Kγ)” (J Med Chem, 2022).
# Calls of active or inactive are those of the source. No cut-off for these calls is given here.
# Tests used:
# [1] = Plasma protein binding in cynomolgus monkey at 1 mg/kg, iv; format: ADME, organism-based, Macaca fascicularis; conditions: read-out: PPB (converted)
# [2] = Metabolic stability in human hepatocytes assessed as parent compound remaining at 0.5 uM measured after 4 hrs by LC-MS/MS analysis; format: ADME, cell-based, Hepatocyte; conditions: read-out: Stability
# [3] = MRT (infinity) in cynomolgus monkey at 1 mg/kg, iv; format: ADME, organism-based, Macaca fascicularis; conditions: in vivo
# [4] = AUC(0 to infinity) in Beagle dog at 1 mg/kg, iv; format: ADME, organism-based, Canis lupus familiaris; parameters: time infinity, dose 1 mg/kg, route iv; conditions: in vivo
# [5] = Apparent permeability of the compound across apical to basolateral side in human Caco-2 cells; format: ADME, cell-based
# [6] = Clearance in Beagle dog at 1 mg/kg, iv; format: ADME, organism-based, Canis lupus familiaris; conditions: in vivo
# [7] = target: T1, Phosphatidylinositol 4,5-bisphosphate 3-kinase catalytic subunit delta isoform (Homo sapiens, UniProt O00329); assay: Inhibition of PI3Kdelta (unknown origin) using PIP2 as substrate preincubated for 1 hr followed by substrate addition and measured after 60 mins in presence of ATP by ADP-glo assay
# T1 sequence (O00329 whole entry): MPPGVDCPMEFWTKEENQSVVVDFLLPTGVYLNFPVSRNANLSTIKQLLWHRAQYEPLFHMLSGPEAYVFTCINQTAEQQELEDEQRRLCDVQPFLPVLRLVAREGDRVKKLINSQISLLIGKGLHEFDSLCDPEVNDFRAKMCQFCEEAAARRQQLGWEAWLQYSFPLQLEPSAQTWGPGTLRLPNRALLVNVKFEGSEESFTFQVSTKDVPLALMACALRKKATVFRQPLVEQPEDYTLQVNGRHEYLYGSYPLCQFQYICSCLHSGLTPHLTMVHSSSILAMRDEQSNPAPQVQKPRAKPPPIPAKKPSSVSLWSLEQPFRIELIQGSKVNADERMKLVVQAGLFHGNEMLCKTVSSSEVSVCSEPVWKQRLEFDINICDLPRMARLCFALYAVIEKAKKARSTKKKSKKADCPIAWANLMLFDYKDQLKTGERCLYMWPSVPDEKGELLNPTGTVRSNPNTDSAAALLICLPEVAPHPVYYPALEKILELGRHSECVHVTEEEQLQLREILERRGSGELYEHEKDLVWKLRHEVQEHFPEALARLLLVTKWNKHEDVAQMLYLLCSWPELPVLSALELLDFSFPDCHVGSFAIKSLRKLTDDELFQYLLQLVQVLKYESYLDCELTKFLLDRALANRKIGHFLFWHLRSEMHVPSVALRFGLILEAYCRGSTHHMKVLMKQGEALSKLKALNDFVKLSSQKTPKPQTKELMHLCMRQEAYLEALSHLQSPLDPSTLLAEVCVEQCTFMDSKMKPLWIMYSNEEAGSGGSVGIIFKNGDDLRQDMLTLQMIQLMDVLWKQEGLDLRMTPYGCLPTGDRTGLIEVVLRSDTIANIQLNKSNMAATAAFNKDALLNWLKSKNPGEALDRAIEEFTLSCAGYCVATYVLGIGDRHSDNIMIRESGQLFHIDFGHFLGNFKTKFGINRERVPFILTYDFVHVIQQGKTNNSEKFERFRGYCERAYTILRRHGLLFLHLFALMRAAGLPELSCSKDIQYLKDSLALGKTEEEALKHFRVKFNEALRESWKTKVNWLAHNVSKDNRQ
# [8] = Half life in cynomolgus monkey at 1 mg/kg, iv; format: ADME, organism-based, Macaca fascicularis; conditions: in vivo
# Homo sapiens = organism: Homo sapiens; assay: Selectivity ratio of IC50 for inhibition of PI3Kbeta (unknown origin) to IC50 for inhibition of PI3Kgamma (unknown origin)
# [9] = MRT (infinity) in Beagle dog at 1 mg/kg, iv; format: ADME, organism-based, Canis lupus familiaris; conditions: in vivo
# [10] = target: T2, Phosphatidylinositol 4,5-bisphosphate 3-kinase catalytic subunit gamma isoform (Homo sapiens, UniProt P48736); assay: Inhibition of PI3Kgamma (unknown origin) in […] stimulated human THP-1 cells assessed as reduction in Akt phosphorylation level at Ser473 residue preincubated for 60 mins followed by rhMCP-1 stimulation and measured after 2 mins by AlphaLisa assay; format: cell-based
# Target sequence in this assay (P48736 whole entry, canonical isoform): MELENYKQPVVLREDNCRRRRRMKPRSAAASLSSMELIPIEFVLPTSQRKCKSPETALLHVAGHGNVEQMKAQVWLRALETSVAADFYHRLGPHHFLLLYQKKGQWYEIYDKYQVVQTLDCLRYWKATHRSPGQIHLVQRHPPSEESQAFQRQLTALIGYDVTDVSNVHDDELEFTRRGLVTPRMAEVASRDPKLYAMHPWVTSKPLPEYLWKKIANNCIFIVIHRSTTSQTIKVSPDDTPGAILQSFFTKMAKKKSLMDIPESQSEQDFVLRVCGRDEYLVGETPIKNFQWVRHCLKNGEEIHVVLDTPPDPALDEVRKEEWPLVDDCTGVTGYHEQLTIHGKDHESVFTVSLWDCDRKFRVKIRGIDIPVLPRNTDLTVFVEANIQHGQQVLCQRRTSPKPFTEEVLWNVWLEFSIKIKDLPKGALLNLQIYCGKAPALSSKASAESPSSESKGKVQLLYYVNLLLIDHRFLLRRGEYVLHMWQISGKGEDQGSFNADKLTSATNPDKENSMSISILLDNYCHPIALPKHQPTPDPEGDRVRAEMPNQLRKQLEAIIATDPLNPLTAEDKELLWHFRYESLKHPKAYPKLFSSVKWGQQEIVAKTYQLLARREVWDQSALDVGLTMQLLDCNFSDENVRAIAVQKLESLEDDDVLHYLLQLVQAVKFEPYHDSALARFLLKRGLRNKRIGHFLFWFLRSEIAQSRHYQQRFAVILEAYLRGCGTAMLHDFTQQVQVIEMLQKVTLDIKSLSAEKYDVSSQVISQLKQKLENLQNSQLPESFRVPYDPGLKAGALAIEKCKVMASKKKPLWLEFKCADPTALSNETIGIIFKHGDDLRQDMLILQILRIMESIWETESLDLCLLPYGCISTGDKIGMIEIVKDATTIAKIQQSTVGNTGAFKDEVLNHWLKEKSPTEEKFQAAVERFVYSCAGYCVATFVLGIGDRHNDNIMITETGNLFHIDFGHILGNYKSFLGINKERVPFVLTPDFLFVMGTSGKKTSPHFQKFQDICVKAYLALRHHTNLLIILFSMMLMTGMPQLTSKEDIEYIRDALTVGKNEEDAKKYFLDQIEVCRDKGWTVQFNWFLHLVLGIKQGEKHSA
# [11] = target: T2, Phosphatidylinositol 4,5-bisphosphate 3-kinase catalytic subunit gamma isoform; assay: Inhibition of P13Kgamma in LPS and IFNgamma stimulated human M1 macrophage assessed as increase in TNFA expression at 1 uM pretreated for 1 hr followed by LPS and IFNgamma stimulation by qRT-PCR analysis; format: cell-based
# Target sequence in this assay (P48736 whole entry, looked up, canonical isoform): as the sequence (P48736 whole entry, canonical isoform) above
# [12] = Clearance in C57BL/6 mouse at 0.5 mg/kg, iv; format: ADME, organism-based; conditions: in vivo
# [13] = Cmax in Sprague-Dawley rat at 10 mg/kg, po measured up to 24 hrs by LC-MS/MS analysis analysis; format: ADME, organism-based; parameters: dose 10 mg/kg, time < 24 hrs, route po; conditions: in vivo
# [14] = target: T2, Phosphatidylinositol 4,5-bisphosphate 3-kinase catalytic subunit gamma isoform; assay: Inhibition of PI3Kgamma (unknown origin) using PIP2 as substrate preincubated for 1 hr followed by substrate addition and measured after 60 mins in presence of ATP by ADP-glo assay
# Target sequence in this assay (P48736 whole entry, canonical isoform): as above
# [15] = Half life in Beagle dog at 1 mg/kg, iv; format: ADME, organism-based, Canis lupus familiaris; conditions: in vivo
# [16] = target: Phosphatidylinositol 4,5-bisphosphate 3-kinase catalytic subunit beta isoform (Homo sapiens, UniProt P42338); assay: Inhibition of PI3Kbeta (unknown origin) using PIP2 as substrate preincubated for 1 hr followed by substrate addition and measured after 60 mins in presence of ATP by ADP-glo assay
# [17] = target: T2, Phosphatidylinositol 4,5-bisphosphate 3-kinase catalytic subunit gamma isoform; assay: Inhibition of P13Kgamma in LPS and IFNgamma stimulated human M1 macrophage assessed as increase in IL6 expression at 1 uM pretreated for 1 hr followed by LPS and IFNgamma stimulation by qRT-PCR analysis; format: cell-based
# Target sequence in this assay (P48736 whole entry, looked up, canonical isoform): as the sequence (P48736 whole entry, canonical isoform) above
# [18] = Half life in C57BL/6 mouse at 0.5 mg/kg, iv; format: ADME, organism-based; conditions: in vivo
# [19] = AUC(0 to infinity) in Sprague-Dawley rat at 1 mg/kg, iv measured up to 8 hrs by LC-MS/MS analysis; format: ADME, organism-based; parameters: dose 1 mg/kg, time < 8 hrs, route iv; conditions: in vivo
# [20] = Volume of distribution at steady state in Sprague-Dawley rat at 1 mg/kg, iv measured up to 8 hrs by LC-MS/MS analysis; format: ADME, organism-based; conditions: in vivo
# [21] = target: Phosphatidylinositol 4,5-bisphosphate 3-kinase catalytic subunit alpha isoform (Homo sapiens, UniProt P42336); assay: Inhibition of PI3Kalpha (unknown origin) using PIP2 as substrate preincubated for 1 hr followed by substrate addition and measured after 60 mins in presence of ATP by ADP-glo assay
# [22] = AUC(0 to infinity) in cynomolgus monkey at 1 mg/kg, iv; format: ADME, organism-based, Macaca fascicularis; parameters: time infinity, dose 1 mg/kg, route iv; conditions: in vivo
# [23] = Oral bioavailability in Sprague-Dawley rat at 10 mg/kg measured up to 24 hrs by LC-MS/MS analysis; format: ADME, organism-based; conditions: in vivo
# CYP3A4 = CYP3A4 (Homo sapiens, UniProt P08684); assay: in vitro; conditions: human liver microsomes, probe midazolam
# Description: Time dependent inhibition of CYP3A4 in human liver microsomes at 10 uM using midazolam as substrate preincubated for 30 mins in presence of NADPH by LC/MS/MS analysis relative to control
# [24] = MRT (infinity) in Sprague-Dawley rat at 1 mg/kg, iv measured up to 8 hrs by LC-MS/MS analysis; format: ADME, organism-based; conditions: in vivo
# [25] = Volume of distribution at steady state in C57BL/6 mouse at 0.5 mg/kg, iv; format: ADME, organism-based; conditions: in vivo
# [26] = Volume of distribution at steady state in cynomolgus monkey at 1 mg/kg, iv; format: ADME, organism-based, Macaca fascicularis; conditions: in vivo
# [27] = Metabolic stability in human hepatocytes assessed as intrinsic clearance per 10^6 cells at 0.5 uM by LC-MS/MS analysis; format: ADME, cell-based, Hepatocyte; conditions: read-out: CLH
# [28] = Volume of distribution at steady state in Beagle dog at 1 mg/kg, iv; format: ADME, organism-based, Canis lupus familiaris; conditions: in vivo
# Sequence of Phosphatidylinositol 4,5-bisphosphate 3-kinase catalytic subunit beta isoform (P42338 whole entry, canonical isoform): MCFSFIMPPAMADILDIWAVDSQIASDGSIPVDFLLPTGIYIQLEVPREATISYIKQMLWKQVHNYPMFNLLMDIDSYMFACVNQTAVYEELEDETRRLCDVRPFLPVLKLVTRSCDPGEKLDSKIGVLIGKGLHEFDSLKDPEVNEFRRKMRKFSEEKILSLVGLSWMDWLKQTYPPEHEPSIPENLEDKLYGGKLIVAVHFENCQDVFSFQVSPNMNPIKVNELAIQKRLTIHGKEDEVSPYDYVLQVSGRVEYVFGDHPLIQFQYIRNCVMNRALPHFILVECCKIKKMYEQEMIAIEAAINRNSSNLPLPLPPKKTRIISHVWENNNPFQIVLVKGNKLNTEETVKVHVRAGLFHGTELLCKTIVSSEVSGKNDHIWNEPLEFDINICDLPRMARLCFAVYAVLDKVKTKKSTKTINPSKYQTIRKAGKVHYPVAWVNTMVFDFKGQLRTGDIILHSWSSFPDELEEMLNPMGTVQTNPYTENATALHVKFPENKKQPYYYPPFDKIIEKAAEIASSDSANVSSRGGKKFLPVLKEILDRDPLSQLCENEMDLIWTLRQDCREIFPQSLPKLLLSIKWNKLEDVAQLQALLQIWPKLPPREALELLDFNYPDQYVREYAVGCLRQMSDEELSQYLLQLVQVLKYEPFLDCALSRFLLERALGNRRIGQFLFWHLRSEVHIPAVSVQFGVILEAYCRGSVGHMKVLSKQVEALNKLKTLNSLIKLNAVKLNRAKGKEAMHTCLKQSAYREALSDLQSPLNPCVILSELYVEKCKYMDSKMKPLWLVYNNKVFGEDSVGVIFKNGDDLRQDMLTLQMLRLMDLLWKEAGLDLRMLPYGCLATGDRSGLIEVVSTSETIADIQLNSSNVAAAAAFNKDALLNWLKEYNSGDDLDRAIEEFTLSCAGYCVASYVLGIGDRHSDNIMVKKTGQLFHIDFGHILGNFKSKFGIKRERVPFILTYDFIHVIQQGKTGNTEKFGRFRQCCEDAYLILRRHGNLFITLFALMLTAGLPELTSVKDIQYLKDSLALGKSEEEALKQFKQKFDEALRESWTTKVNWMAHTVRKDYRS
# Sequence of CYP3A4 (P08684 whole entry): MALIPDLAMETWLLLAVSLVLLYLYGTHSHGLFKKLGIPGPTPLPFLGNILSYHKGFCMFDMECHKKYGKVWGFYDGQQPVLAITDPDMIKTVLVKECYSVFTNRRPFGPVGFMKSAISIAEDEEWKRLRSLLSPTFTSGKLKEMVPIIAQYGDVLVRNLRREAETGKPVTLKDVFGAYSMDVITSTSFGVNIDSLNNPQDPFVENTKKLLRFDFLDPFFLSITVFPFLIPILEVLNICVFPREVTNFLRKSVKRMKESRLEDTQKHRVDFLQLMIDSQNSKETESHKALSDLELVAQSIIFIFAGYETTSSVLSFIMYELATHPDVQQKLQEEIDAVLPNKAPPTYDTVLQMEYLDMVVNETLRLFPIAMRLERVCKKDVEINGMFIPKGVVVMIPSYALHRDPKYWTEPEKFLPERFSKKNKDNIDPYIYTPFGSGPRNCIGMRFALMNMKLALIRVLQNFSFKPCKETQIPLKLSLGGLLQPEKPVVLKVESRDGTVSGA
# Sequence of Phosphatidylinositol 4,5-bisphosphate 3-kinase catalytic subunit alpha isoform (P42336 whole entry, canonical isoform): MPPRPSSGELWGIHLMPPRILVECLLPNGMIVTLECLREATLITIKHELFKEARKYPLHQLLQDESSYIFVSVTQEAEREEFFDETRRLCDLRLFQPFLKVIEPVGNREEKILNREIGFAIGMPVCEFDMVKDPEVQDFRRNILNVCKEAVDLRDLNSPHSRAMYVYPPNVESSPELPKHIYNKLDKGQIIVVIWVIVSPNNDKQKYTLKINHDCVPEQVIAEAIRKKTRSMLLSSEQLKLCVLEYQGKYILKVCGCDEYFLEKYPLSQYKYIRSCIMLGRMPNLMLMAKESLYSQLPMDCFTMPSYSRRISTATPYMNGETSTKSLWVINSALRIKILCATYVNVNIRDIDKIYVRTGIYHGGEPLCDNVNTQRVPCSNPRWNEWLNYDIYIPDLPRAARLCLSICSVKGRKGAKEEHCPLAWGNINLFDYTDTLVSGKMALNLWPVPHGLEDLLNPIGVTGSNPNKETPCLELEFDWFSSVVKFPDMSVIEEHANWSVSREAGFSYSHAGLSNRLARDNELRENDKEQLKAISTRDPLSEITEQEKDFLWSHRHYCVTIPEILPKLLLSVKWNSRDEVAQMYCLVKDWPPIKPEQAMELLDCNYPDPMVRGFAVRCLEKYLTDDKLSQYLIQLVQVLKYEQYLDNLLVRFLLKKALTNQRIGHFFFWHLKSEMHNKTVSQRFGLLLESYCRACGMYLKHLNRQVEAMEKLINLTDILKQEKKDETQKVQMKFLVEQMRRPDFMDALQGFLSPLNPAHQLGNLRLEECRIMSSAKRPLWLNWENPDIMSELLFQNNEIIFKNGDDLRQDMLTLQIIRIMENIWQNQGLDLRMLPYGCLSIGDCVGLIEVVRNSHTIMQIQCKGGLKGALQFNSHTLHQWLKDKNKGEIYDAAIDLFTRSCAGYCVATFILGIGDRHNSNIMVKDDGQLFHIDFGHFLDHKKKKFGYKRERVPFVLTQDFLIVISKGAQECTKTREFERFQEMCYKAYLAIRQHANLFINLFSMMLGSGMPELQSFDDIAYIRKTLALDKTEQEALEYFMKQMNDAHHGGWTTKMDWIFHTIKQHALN
SMILES,fraction unbound [1],"remaining at 4 h, 0.5 µM [2] [%]",MRT inf [3] [h],AUC(0-inf) [4] [ng·h/mL],Papp A→B [5] [×10⁻⁶ cm/s],clearance [6] [mL/min/kg],IC50 [7] [nM],half-life [8] [min],Ratio IC50 (Homo sapiens),MRT inf [9] [h],IC50 [10] [nM],inhibition [11],clearance [12] [mL/min/kg],Cmax [13] [ng/mL],IC50 [14] [nM],half-life [15] [min],IC50 [16] [µM],inhibition [17],half-life [18] [min],AUC(0-inf) [19] [ng·h/mL],further results
C[C@@H](C1CC1)N1Cc2cc(-c3ccn4nc(N)c(C(=O)N[C@H]5CC[C@@](C)(O)CC5)c4n3)cc(OC(F)F)c2C1=O,0.034,> 95,3.41,1800,16.8,9.67,1080,191,3680,5.92,34,Active,14.7,703,1.9,291,9.21,Active,299,630,"Vdss [20]: 3.03 L/kg; IC50 [21]: 1250 nM; AUC(0-inf) [22]: 925 ng·h/mL; bioavailability [23]: 102%; inhibition at 30 min, 10 µM (CYP3A4): 10%; MRT inf [24]: 1.86 h; Vdss [25]: 1.66 L/kg; Vdss [26]: 3.69 L/kg; hepatocyte CLint at 0.5 µM [27]: < 1.2 µL/min/1e6 cells; Vdss [28]: 3.55 L/kg"
C[C@@H](C1CC1)N1Cc2cc(-c3ccn4nc(N)c(C(=O)N[C@H]5CC[C@@](C)(O)CC5)c4n3)cc(OC(F)(F)F)c2C1=O,0.05,> 95,3.58,1240,4.7,14,1650,219,7040,3.85,38,Active,17.2,25,2.8,210,29.3,Active,236,797,"Vdss [20]: 2.91 L/kg; IC50 [21]: 2650 nM; AUC(0-inf) [22]: 949 ng·h/mL; bioavailability [23]: 4%; inhibition at 30 min, 10 µM (CYP3A4): 10%; MRT inf [24]: 2.33 h; Vdss [25]: 2.09 L/kg; Vdss [26]: 3.77 L/kg; hepatocyte CLint at 0.5 µM [27]: < 1.2 µL/min/1e6 cells; Vdss [28]: 3.24 L/kg"
